As usually defined, the IC90 is the concentration needed for an effect of 90%.

25 compounds from US20230203043A1, “NOVEL IMIDAZOPYRAZINE DERIVATIVES” (Hoffmann-La Roche Inc., priority 2020, published 2023) can be followed below.

Where a name gives a salt, the structure may show the parent alone.

One experiment relates to Acinetobacter baumannii ATCC17961. Kind of experiment: Antimicrobial susceptibility testing: 90% growth inhibitory concentration (IC90) determination in Iso-Sensitest broth, OD600 growth. In kind it is cell-based. To be noted: Acinetobacter baumannii, ATCC17961, 16 h, read-out: A. baumannii ATCC 17961 IC90 (uM), strain ATCC 17961, OD600 growth over 16 h. A digest of the protocol:
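Growth inhibition is calculated during the logarithmic phase from OD600 readings taken every 20 minutes across 16 h at 35±2° C. Bacteria at ~5×10^(5) CFU/ml face twofold dilution series (e.g. 50 to 0.097 μM final).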
With `CCc1cc(Nc2nccn3c(-c4cn(C)nc4C(F)(F)F)cnc23)ccc1C(=O)NCCNC(=O)[C@@H]1C[C@@H](O)CN1` [Example 445, (2S,4R)-N-[2-[[2-ethyl-4-[[3-[1-methyl-3-(trifluoromethyl)pyrazol-4-yl]imidazo[1,2-a]pyrazin-8-yl]amino]benzoyl]amino]ethyl]-4-hydroxypyrrolidine-2-carboxamide formate], the IC90 turned out to be 1.48 µM.
With `N#CCn1cc(-c2cnc3c(Nc4ccc(C(=O)N5CCN(C(=O)N[C@H]6CCNC6)CC5)c(Cl)c4)nccn23)c(C(F)(F)F)n1` [Example 297, 4-[2-chloro-4-[[3-[1-(cyanomethyl)-3-(trifluoromethyl)pyrazol-4-yl]imidazo[1,2-a]pyrazin-8-yl]amino]benzoyl]-N-[(3S)-pyrrolidin-3-yl]piperazine-1-carboxamide formate], the IC90 was 0.31 µM.
The same measure, in the same setting: the value for `N#CCn1cc(-c2cnc3c(Nc4ccc(C(=O)N5CCN(C(=O)CCN)CC5)c(Cl)c4)nccn23)c(C(F)(F)F)n1` [Example 286, 2-[4-[8-[4-[4-(3-aminopropanoyl)piperazine-1-carbonyl]-3-chloroanilino]imidazo[1,2-a]pyrazin-3-yl]-3-(trifluoromethyl)pyrazol-1-yl]acetonitrile formate] was 0.226 µM; that for `CCc1cc(Nc2nccn3c(-c4c[nH]nc4C(F)(F)F)cnc23)ccc1C(=O)NCCCNC(=O)CCN` [Example 212, N-[3-(3-aminopropanoylamino)propyl]-2-ethyl-4-[[3-[3-(trifluoromethyl)-1H-pyrazol-4-yl]imidazo[1,2-a]pyrazin-8-yl]amino]benzamide formate] was 0.296 µM; that for `CCc1cc(Nc2nccn3c(-c4cn(CC(F)F)nc4C(F)(F)F)cnc23)ccc1C(=O)NCCCNC(=O)CCN` [Example 630, N-(3-(3-aminopropanamido)propyl)-4-((3-(1-(2,2-difluoroethyl)-3-(trifluoromethyl)-1H-pyrazol-4-yl)imidazo[1,2-a]pyrazin-8-yl)amino)-2-ethylbenzamide formate] was 0.206 µM.
Consider `CCc1cc(Nc2nccn3c(-c4cn(CC#N)nc4C(F)(F)F)cnc23)ccc1C(=O)NCCOCCCN` [Example 612, N-(2-(3-aminopropoxy)ethyl)-4-((3-(1-(cyanomethyl)-3-(trifluoromethyl)-1H-pyrazol-4-yl)imidazo[1,2-a]pyrazin-8-yl)amino)-2-ethylbenzamide formate], for which the IC90 came out at 0.1 µM.
The same measure, in the same setting: the value for `CCc1cc(Nc2nccn3c(-c4cn(CC#N)nc4C(F)(F)F)cnc23)ccc1C(=O)N[C@H](C)C(=O)N1CC[C@@H](N)C1` [Example 732, N-[(1R)-2-[(3R)-3-aminopyrrolidin-1-yl]-1-methyl-2-oxo-ethyl]-4-[[3-[1-(cyanomethyl)-3-(trifluoromethyl)pyrazol-4-yl]imidazo[1,2-a]pyrazin-8-yl]amino]-2-ethyl-benzamide formate] was 0.48 µM.

Staying with this experiment, now noted: Acinetobacter baumannii, ATCC17961, 16 h, strain ATCC 17961, OD600 growth over 16 h, read-out: A. baumannii ATCC 17961 IC90.
In the case of `CCCn1cc(-c2cnc3c(Nc4ccc(C(=O)NCCOCCN)c(CC)c4)nccn23)c(C(F)F)n1` [Example 346, N-[2-(2-aminoethoxy)ethyl]-4-[[3-[3-(difluoromethyl)-1-propylpyrazol-4-yl]imidazo[1,2-a]pyrazin-8-yl]amino]-2-ethylbenzamide], the IC90 was found to be 0.164 µM.
On the same count and under the same terms, the value for `CCc1cc(Nc2nccn3c(-c4cn(CCF)nc4C(F)(F)F)cnc23)ccc1C(=O)N1CCN(C(=O)C2CCNCC2)CC1` [Example 71, [2-ethyl-4-[[3-[1-(2-fluoroethyl)-3-(trifluoromethyl)pyrazol-4-yl]imidazo[1,2-a]pyrazin-8-yl]amino]phenyl]-[4-(piperidine-4-carbonyl)piperazin-1-yl]methanone] was 0.593 µM; that for `Cc1cc(Nc2nccn3c(-c4cn(CC(F)F)nc4C(F)(F)F)cnc23)cc(F)c1C(=O)NCCOCCN` [Example 49, N-[2-(2-aminoethoxy)ethyl]-4-[[3-[1-(2,2-difluoroethyl)-3-(trifluoromethyl)pyrazol-4-yl]imidazo[1,2-a]pyrazin-8-yl]amino]-2-fluoro-6-methylbenzamide] was 0.12 µM.
Turning to `O=C(CN1CCN(C(=O)c2ccc(Nc3nccn4c(-c5cn(CC(F)F)nc5C(F)(F)F)cnc34)cc2Cl)CC1)N[C@H]1CCNC1` [Example 600, (S)-2-(4-(2-chloro-4-((3-(1-(2,2-difluoroethyl)-3-(trifluoromethyl)-1H-pyrazol-4-yl)imidazo[1,2-a]pyrazin-8-yl)amino)benzoyl)piperazin-1-yl)-N-(pyrrolidin-3-yl) acetamide formate], the IC90 was 0.517 µM.
On the same count and under the same terms, the same measure for `CCc1cc(Nc2nccn3c(-c4cn(CC#N)nc4C(F)(F)F)cnc23)ccc1C(=O)NCC(=O)NCC1CCCN1` (stereo not shown) [Example 522, 4-[[3-[1-(cyanomethyl)-3-(trifluoromethyl)pyrazol-4-yl]imidazo[1,2-a]pyrazin-8-yl]amino]-2-ethyl-N-[2-oxo-2-(pyrrolidin-2-ylmethylamino)ethyl] benzamide formate]: 0.402 µM.
The same measure, in the same setting: the same measure for `CCc1cc(Nc2nccn3c(-c4c[nH]nc4C(F)(F)F)cnc23)ccc1C(=O)NCC(=O)N1CCNCC1` [Example 753, 2-ethyl-N-(2-oxo-2-piperazin-1-yl-ethyl)-4-[[3-[3-(trifluoromethyl)-1H-pyrazol-4-yl]imidazo[1,2-a]pyrazin-8-yl]amino] benzamide formate]: 0.659 µM; for `Cc1cc(Nc2nccn3c(-c4c[nH]nc4C(F)(F)F)cnc23)ccc1C(=O)NCCOCCN` [Example 360, N-[2-(2-aminoethoxy)ethyl]-2-methyl-4-[[3-[3-(trifluoromethyl)-1H-pyrazol-4-yl]imidazo[1,2-a]pyrazin-8-yl]amino]benzamide hydrochloride]: 0.257 µM.
For `CCc1cc(Nc2nccn3c(-c4cn(CC#N)nc4C(F)(F)F)cnc23)ccc1C(=O)NCC(=O)N1CCC(N)CC1` [Example 500, N-[2-(4-amino-1-piperidyl)-2-oxo-ethyl]-4-[[3-[1-(cyanomethyl)-3-(trifluoromethyl)pyrazol-4-yl]imidazo[1,2-a]pyrazin-8-yl]amino]-2-ethyl-benzamide formate], the IC90 was determined as 0.222 µM.
Consider `CCc1cc(Nc2nccn3c(-c4cn(CC#N)nc4C(F)(F)F)cnc23)ccc1C(=O)NCCOC[C@H](C)N` [Example 152, N-[2-[(2S)-2-aminopropoxy]ethyl]-4-[[3-[1-(cyanomethyl)-3-(trifluoromethyl)pyrazol-4-yl]imidazo[1,2-a]pyrazin-8-yl]amino]-2-ethylbenzamide], for which the IC90 turned out to be 0.241 µM.
The same measure, in the same setting: the same measure for `NCC(=O)N1CC2(C1)CN(C(=O)c1ccc(Nc3nccn4c(-c5c[nH]nc5C(F)(F)F)cnc34)cc1Cl)C2` [Example 658, 2-amino-1-(6-(2-chloro-4-((3-(3-(trifluoromethyl)-1H-pyrazol-4-yl)imidazo[1,2-a]pyrazin-8-yl)amino)benzoyl)-2,6-diazaspiro[3.3]heptan-2-yl)ethan-1-one]: 0.269 µM; for `N#CCn1cc(-c2cnc3c(Nc4ccc(C(=O)N5CC6(CNC6)C5)c(Cl)c4)nccn23)c(C(F)(F)F)n1` [Example 102, 2-[4-[8-[3-chloro-4-(2,6-diazaspiro[3.3]heptane-2-carbonyl)anilino]imidazo[1,2-a]pyrazin-3-yl]-3-(trifluoromethyl)pyrazol-1-yl]acetonitrile]: 0.18 µM; for `Cc1cc(Nc2nccn3c(-c4cn(CC#N)nc4C(F)(F)F)cnc23)cc(F)c1C(=O)N1CCNCC1` [Example 77, 2-[4-[8-[3-fluoro-5-methyl-4-(piperazine-1-carbonyl)anilino]imidazo[1,2-a]pyrazin-3-yl]-3-(trifluoromethyl)pyrazol-1-yl]acetonitrile]: 3.29 µM.
Consider `Cc1cc(Nc2nccn3c(-c4cn(CCF)nc4C(F)(F)F)cnc23)cc(F)c1C(=O)NCCOCCN` [Example 61, N-[2-(2-aminoethoxy)ethyl]-2-fluoro-4-[[3-[1-(2-fluoroethyl)-3-(trifluoromethyl)pyrazol-4-yl]imidazo[1,2-a]pyrazin-8-yl]amino]-6-methylbenzamide], for which the IC90 is 0.232 µM.
The same measure, in the same setting: the value for `CCc1cc(Nc2nccn3c(-c4cn(CC#N)nc4C(F)(F)F)cnc23)ccc1C(=O)NC` [Example 341, 4-[[3-[1-(cyanomethyl)-3-(trifluoromethyl)pyrazol-4-yl]imidazo[1,2-a]pyrazin-8-yl]amino]-2-ethyl-N-methylbenzamide] was 0.223 µM.
`CCc1cc(Nc2nccn3c(-c4c[nH]nc4C(F)(F)F)cnc23)ccc1C(=O)NCC1CC1N` (stereo not shown) [Example 776, N-((2-aminocyclopropyl)methyl)-2-ethyl-4-((3-(3-(trifluoromethyl)-1H-pyrazol-4-yl)imidazo [1,2-a]pyrazin-8-yl)amino) benzamide formate]: the IC90 was found to be 1.01 µM.
Still for that read-out and setting: the value for `O=C(c1ccc(Nc2nccn3c(-c4c[nH]nc4C(F)(F)F)cnc23)cc1Cl)N1CCN(C(=O)[C@@H]2CCNC2)CC1` [Example 197, [2-chloro-4-[[3-[3-(trifluoromethyl)-1H-pyrazol-4-yl]imidazo[1,2-a]pyrazin-8-yl]amino]phenyl]-[4-[(3R)-pyrrolidine-3-carbonyl]piperazin-1-yl]methanone] was 0.16 µM.

The experiment is the same for the next values; noted with them: strain ATCC 17961, OD600 growth over 16 h, read-out: A. baumannii ATCC 17961 IC90.
As to `N#CCCn1cc(-c2cnc3c(Nc4ccc(C(=O)N5CCN(C(=O)NC6CNC6)CC5)c(Cl)c4)nccn23)c(C(F)(F)F)n1` [Example 246, N-(azetidin-3-yl)-4-[2-chloro-4-[[3-[1-(2-cyanoethyl)-3-(trifluoromethyl)pyrazol-4-yl]imidazo[1,2-a]pyrazin-8-yl]amino]benzoyl] piperazine-1-carboxamide formate], the IC90 stood at 0.533 µM.
Turning to `C#CCn1cc(-c2cnc3c(Nc4ccc(C(=O)NCCCN)c(CC)c4)nccn23)c(C(F)(F)F)n1` [Example 47, N-(3-aminopropyl)-2-ethyl-4-[[3-[1-prop-2-ynyl-3-(trifluoromethyl)pyrazol-4-yl]imidazo[1,2-a]pyrazin-8-yl]amino] benzamide], the IC90 worked out at 0.105 µM.
